Data set [1] has as its system Salmonella typhimurium. In words: Antibacterial activity against Salmonella typhimurium DT104 in the presence 50% inactivated mouse serum by MH broth based assay. Particulars: Salmonella enterica. Format: functional, Salmonella enterica subsp. enterica serovar Typhimurium.
The test system of data set [2] is Salmonella typhimurium. In words: Antibacterial activity against Salmonella typhimurium DT104 in the presence of NH4Cl by MH broth based assay. Format: functional, Salmonella enterica subsp. enterica serovar Typhimurium. Particulars: Salmonella enterica.
Data set [3] relates to Salmonella typhimurium. In words: Antibacterial activity against Salmonella typhimurium DT104 in the presence of KCl by MH broth based assay. Format: functional, Salmonella enterica subsp. enterica serovar Typhimurium. The note with it: Salmonella enterica.
Data set [4] relates to Salmonella typhimurium. In words: Antibacterial activity against Salmonella typhimurium DT104 in the presence of CaCl2 by MH broth based assay. Type of data set: functional, Salmonella enterica subsp. enterica serovar Typhimurium. The note with it: Salmonella enterica.
Data set [5] has as its system Salmonella typhimurium. In words: Antibacterial activity against Salmonella typhimurium DT104 in the presence of NaCl by MH broth based assay. The note with it: Salmonella enterica. Type of data set: functional, Salmonella enterica subsp. enterica serovar Typhimurium.
For data set [6], the system named is Salmonella typhimurium. In words: Antibacterial activity against Salmonella typhimurium DT104 in the presence 25% inactivated mouse serum by MH broth based assay. Type of data set: functional, Salmonella enterica subsp. enterica serovar Typhimurium. The note with it: Salmonella enterica.
Data set [7] relates to Salmonella typhimurium. In words: Antibacterial activity against Salmonella typhimurium DT104 in the presence of FeCl3 by MH broth based assay. Format: functional, Salmonella enterica subsp. enterica serovar Typhimurium. The note with it: Salmonella enterica.
For data set [8], the system named is Salmonella typhimurium. In words: Antibacterial activity against Salmonella typhimurium DT104 in the presence of MgCl2 by MH broth based assay. Format: functional, Salmonella enterica subsp. enterica serovar Typhimurium. The note with it: Salmonella enterica.
The subject of the next data set is Erythrocyte. In words: Hemolytic activity in human Red blood cells assessed as hemolysis incubated for 1 hrs by absorbance based microplate reader analysis. Type of data set: toxicity, cell-based.

In general, MIC refers to the lowest concentration that inhibits growth of the organism.

Values after ≈ are worked out from the molar mass of the structure shown.

Turning to `CC(C)C[C@H](NC(=O)[C@H](CCCNC(=N)N)NC(=O)CNC(=O)CNC(=O)[C@@H](N)CCCNC(=N)N)C(=O)N[C@H]1CSSC[C@@H](C(=O)N[C@H](C(=O)NCC(=O)N[C@@H](CCCNC(=N)N)C(N)=O)C(C)C)NC(=O)[C@H](C(C)C)NC(=O)[C@@H]2CSSC[C@H](NC(=O)[C@H](Cc3ccc(O)cc3)NC1=O)C(=O)N[C@@H](CCCNC(=N)N)C(=O)N[C@@H](CCCNC(=N)N)C(=O)N[C@@H](CCCNC(=N)N)C(=O)N[C@@H](Cc1ccccc1)C(=O)N2`, the MIC in the data set on Salmonella typhimurium [1] turned out to be 64 µg/mL (≈ 29.7 µM); with Salmonella typhimurium [2] it was 8 µg/mL; in the data set on Salmonella typhimurium [3], 8 µg/mL; in the data set on Salmonella typhimurium [4], 16 µg/mL; in the data set on Salmonella typhimurium [5], 16 µg/mL; against Salmonella typhimurium [6], 32 µg/mL (≈ 14.8 µM). Moreover, the MIC was found to be 32 µg/mL in the data set on Salmonella typhimurium [7] and 8 µg/mL in the data set with Salmonella typhimurium [8].
As for `[H]/N=C(/N)N[C@H]1[C@H](O)[C@@H](O)[C@H](O[C@@H]2O[C@@H](C)[C@](O)(C=O)[C@H]2O[C@@H]2O[C@@H](CO)[C@H](O)[C@@H](O)[C@@H]2NC)[C@@H](N/C(N)=N\[H])[C@@H]1O` [STREPTOMYCIN], the MHC in the data set on Erythrocyte was > 128 µg/mL.

Source of the values: ChEMBL document CHEMBL5352429, “Designed symmetrical β-hairpin peptides for treating multidrug-resistant salmonella typhimurium infections” (Eur J Med Chem, 2022).
